From patent publication US8574546B2, “Substituted aryl-fluoroborates as imaging agents” (The University of British Columbia, priority 2007, dated 2013)

How the values were obtained:
[1] = Rate of defluorination (18F/19F isotopic exchange) of aryltrifluoroborates, TLC autoradiography; format: physicochemical; conditions: FIGS. 1-4, time points 0-180 minutes after labeling
Protocol: A solution of boronic acid/ester at approximately 200 mM in 3 μl DMF is made, and 3 μL of aqueous fluoride at 800 mM added, comprising ˜1 mCi of carrier free ^18F (˜0.6 pmol of ^18F) and carrier ^19F in the form of KHF2 in 800 mM HOAc at pH 3-4, in a total volume of 10 μl at 10 mM total, providing 100 nmol of total fluoride at a pH of 4.5. Following a one hour labeling reaction at room temperature, the extent of fluorination as well as the stability with regards to isotopic exchange is evaluated by thin layer chromotography TLC as described below.
1 μL of the fluorination mix is diluted 1:100 in 200 mM phosphate buffer pH 7.5, 100 mM K^19F and allowed to equilibrate. A “zero” time point is taken, consisting of 1 μL of the fluorination mix added to the above phosphate-KF solution, mixed and then 0.5 μL of this dilution is immediately spotted on a TLC plate. […] A separate dilution is made for each time point. Spots are dried on the plate briefly in ambient air. […]
Once completed, an aliquot (1.5 μL) from the fluorination reaction solution is the added to a volume of 300 μL of a chase solution containing 200 mM phosphate and 100 mM KF (pH 7.5). […] Autoradiograms are then generated and analyzed by a phosphoimager. The densities of the free fluoride spot and the ArBF3 spot are quantified. […]

[2] = [18F] isotope exchange of [18/19F]-(3), dissociation rate of [18F]-fluoride from the trifluoroborate; format: physicochemical; conditions: 200 mM PO4, pH 7.5, 100 mM [19F]-NaF
Protocol: [^18F] Isotope Exchange—Using the Low-Activity Radiochemical Synthesis of [^18/19F]-(3).
In order to assay the dissociation rate of [^18F]-fluoride from the trifluoroborate (3), The six aliquots of Sample-A (each 10 μL, 1.5 nmol [^18/19F]-(3), 0.45 μCi (t=184 min)) were diluted 30 fold into 300 μL of a 200 mM PO4, pH 7.5, 100 mM [^19F]—NaF solution at different times. A volume of 0.5 μL of each dilution was spotted on a TLC plate which is run 2 inches in a 5:95 NH4OH:ethanol developing solution. Each spot that was deposited on the plate had spent increasing amounts of time in the solution containing a vast excess of [^19F]-fluoride. Following autoradiography, a rate constant for the isotopic exchange of [^18F]-fluoride from [^18/19F]-(3) was calculated.

Row | SMILES | retention of the fluorine radioisotope (18F) on TLC autoradiogram [1] | period in which 10% of the fluoride is solvolytically liberated [2]
1 | OB(O)c1cccc(F)c1F [Compound 22] | retain the fluorine radioisotope longer than compounds 10 or 19 | –
2 | O=C1N[C@H]2[C@H](CS[C@H]2CCCCC(=O)N2CCN(C(=O)c3c(F)cc(F)c([B-](F)(F)F)c3F)CC2)N1 [(3), (2-(1,3,5-trifluoro-4-(trifluoroboryl)benzoyl)piperazin-1-yl) biotin] | – | ≥ 833 min
3 | O=C(O)c1cccc(B(O)O)c1 [Compound 12] | retain the fluorine radioisotope longer than compounds 10 or 19 | –
